Assay results from article PMC8779255, “Determining the Anticancer Activity of Sphingosine Kinase Inhibitors Containing Heteroatoms in Their Tail Structure” (Pharmaceutics, 2022).

Experiments:
[1] = tested on: HT29 cells; assay: MTT cell viability assay; type: cell-based, human
Experimental: (§1) The HT29 and HCT116 cells (human colon cancer), AGS (human gastric cancer), and MIA PaCa-2 cells (human pancreatic cancer) were purchased from Korean Cell Line Bank (Seoul, Korea). Cancer cells were maintained in RPMI (HT29 and AGS) and DMEM (HCT116 and MIA PaCa-2) culture media supplemented with 10% fetal bovine serum (FBS) and 100 U/mL penicillin and streptomycin at 37 °C in a 95% humidified incubator containing 5% CO2. The cytotoxic effect of the compounds was assessed using the MTT cell viability assay. Briefly, 3 × 10^3 cells/well were grown in 96-well plates for 24 h. After treatment with desired concentration of respective compounds for 24 h or 48 h, the EZ-CYTOTOX (10 µM) reagent was added in each well and incubated for 90 min. The absorbance was measured at 450 nm wavelength using Skanlt software 5.0 (Thermo Scientific, Waltham, MA, USA) installed on a Multiskan GO (Thermo Scientific, Waltham, MA, USA) spectrophotometer. Each experiment was independently repeated three times (n = 12).

[2] = tested on: HCT116 cells; assay: MTT cell viability assay; type: cell-based, human
Experimental: as §1

[3] = biological target: T1, SK2 enzyme (Homo sapiens, UniProt Q9NRA0); assay: SK activity assay (Adapta screening system); type: biochemical; conditions: 20 μM, Figure 5A
T1 construct: purchased Thermo Fisher Scientific
T1 sequence (Q9NRA0 whole entry): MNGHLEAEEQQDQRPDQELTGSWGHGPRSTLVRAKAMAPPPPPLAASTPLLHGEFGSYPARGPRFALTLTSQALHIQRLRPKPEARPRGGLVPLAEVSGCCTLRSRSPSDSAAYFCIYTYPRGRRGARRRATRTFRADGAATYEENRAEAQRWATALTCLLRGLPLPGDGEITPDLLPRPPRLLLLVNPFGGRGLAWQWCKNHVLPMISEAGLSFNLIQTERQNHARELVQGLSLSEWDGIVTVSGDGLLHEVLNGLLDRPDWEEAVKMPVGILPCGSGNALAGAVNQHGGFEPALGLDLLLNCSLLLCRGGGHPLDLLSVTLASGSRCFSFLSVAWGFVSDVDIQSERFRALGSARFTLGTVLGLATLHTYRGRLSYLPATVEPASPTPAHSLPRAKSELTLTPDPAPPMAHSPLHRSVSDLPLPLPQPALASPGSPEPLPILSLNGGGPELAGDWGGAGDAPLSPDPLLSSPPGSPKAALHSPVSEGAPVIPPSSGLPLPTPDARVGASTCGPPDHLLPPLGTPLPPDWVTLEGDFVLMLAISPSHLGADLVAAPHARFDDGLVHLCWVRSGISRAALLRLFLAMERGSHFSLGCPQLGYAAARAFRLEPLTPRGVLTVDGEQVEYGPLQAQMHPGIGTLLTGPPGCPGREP
Experimental: (§2) The effect of compounds in sphingosine kinase activity was examined using the […] screening system (Thermo Fisher Scientific System, Waltham, MA, USA). The kinase inhibition ability of compounds 1-11 along with RB005 was measured with final concentration of 20 μM. […] The data were presented as percentage inhibition of SK enzyme by individual compounds.

[4] = biological target: T2, SK1 enzyme (Homo sapiens, UniProt Q9NYA1); assay: SK activity assay (Adapta screening system); type: biochemical; conditions: 20 μM, Figure 5A
T2 construct: purchased Thermo Fisher Scientific
T2 sequence (Q9NYA1 whole entry): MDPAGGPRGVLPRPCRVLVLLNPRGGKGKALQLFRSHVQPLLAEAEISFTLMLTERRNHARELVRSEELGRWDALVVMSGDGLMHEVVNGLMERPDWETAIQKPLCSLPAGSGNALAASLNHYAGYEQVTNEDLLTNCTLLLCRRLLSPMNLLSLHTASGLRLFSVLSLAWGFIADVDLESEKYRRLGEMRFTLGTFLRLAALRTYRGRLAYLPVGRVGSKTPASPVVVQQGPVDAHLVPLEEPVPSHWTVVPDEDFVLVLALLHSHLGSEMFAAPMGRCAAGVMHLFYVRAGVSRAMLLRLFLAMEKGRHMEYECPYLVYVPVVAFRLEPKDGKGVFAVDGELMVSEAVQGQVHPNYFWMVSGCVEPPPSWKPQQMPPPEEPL
Experimental: as §2

[5] = tested on: S1PR3; set-up: method as in PMID 27297359; conditions: in Figure 1, no unit; cited from earlier work
[6] = tested on: S1PR4; set-up: method as in PMID 27297359; conditions: in Figure 1, no unit; cited from earlier work
[7] = tested on: S1PR5; set-up: method as in PMID 27297359; conditions: in Figure 1, no unit; cited from earlier work
[8] = tested on: S1PR2; set-up: method as in PMID 27297359; conditions: in Figure 1, no unit; cited from earlier work
[9] = tested on: S1PR1; set-up: method as in PMID 27297359; conditions: in Figure 1, no unit; cited from earlier work
[10] = In vitro metabolic stability in liver microsomes; type: in vitro ADME, mouse
[11] = tested on: SK1; conditions: known compounds, Figure 1; cited from earlier work
[12] = biological target: CYP2D6 (Homo sapiens, UniProt P10635); assay: Inhibition of CYP enzymes activity, human liver microsomes; conditions: human liver microsomes 0.25 mg/mL, 10 μM, dextromethorphan substrate
CYP2D6, sequence (P10635 whole entry): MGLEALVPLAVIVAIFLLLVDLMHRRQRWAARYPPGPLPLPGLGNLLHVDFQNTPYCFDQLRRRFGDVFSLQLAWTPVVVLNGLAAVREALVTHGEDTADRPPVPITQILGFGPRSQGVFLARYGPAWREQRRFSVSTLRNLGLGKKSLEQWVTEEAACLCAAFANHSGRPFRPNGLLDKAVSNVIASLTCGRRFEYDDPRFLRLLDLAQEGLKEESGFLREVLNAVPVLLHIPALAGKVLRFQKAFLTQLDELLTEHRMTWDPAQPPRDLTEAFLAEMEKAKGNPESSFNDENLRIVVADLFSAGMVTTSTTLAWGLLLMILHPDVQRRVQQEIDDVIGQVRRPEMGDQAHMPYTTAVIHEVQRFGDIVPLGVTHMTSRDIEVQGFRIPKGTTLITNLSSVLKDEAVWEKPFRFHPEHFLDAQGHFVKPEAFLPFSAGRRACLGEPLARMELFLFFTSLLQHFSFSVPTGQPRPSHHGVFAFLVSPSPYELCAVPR
Experimental: (§3) Afterward, to terminate the reaction, an acetonitrile solution containing an internal standard (terfenadine) was added, centrifuged for 5 min (14,000 rpm, 4 °C), and the supernatant was injected into the LC-MS/MS system. By simultaneously analyzing metabolites, the ability of the six compounds to inhibit drug metabolism enzymes was evaluated.
(§4) Metabolites of each CYP coenzyme indicator drug generated through the above reaction were analyzed using the Shimadzu Nexera XR system and TSQ vantage (Thermo). The HPLC column was a Kinetex C18 column (2.1 × 100 mm^2, 2.6 μm particle size; Phenomenex, Torrance, CA, USA), and the mobile phase was distilled water (A) containing 0.1% formic acid and acetonitrile (B) containing 0.1% formic acid. […] The generated metabolites were quantified using MRM (Multiple Reaction Monitoring) quantification modes, and data were analyzed using Xcalibur (version 1.6.1).

[13] = In vitro metabolic stability in liver microsomes
Experimental: Microsome incubation was measured in triplicate in a 1.5 mL Eppendorf tube with 0.1 M potassium phosphate buffer (pH 7.4). […] It has a final volume of 100 mL in the presence of an NADPH regeneration system. In the final incubation mixture, 0.5 mg/mL HLM, 0.1 M potassium phosphate buffer (pH 7.4), and NADPH regeneration system (1 mM NADPH, 10 mM MgCl2) were included. In the pre-incubation mixture, HLM was added, and the mixture was run in a shaking incubator at approximately 350 rpm and 37 °C for 5 min under a Thermomixer (Eppendorf, Hamburg, Germany). Reactions were initiated by the addition of 1 mM NADPH and then quenched by the addition of 40 μL of ice-cold acetonitrile containing 10 μM chlorpropamide (CPP) as an internal standard at 0 and 30 min. After quenching, centrifugation of the incubation mixture was performed at 15,000× g for 5 min at 4 °C. An aliquot of 2 µL of the supernatant was injected into the LC-MS/MS system. The LC-MS/MS system was Xcalibur version 1.1.1 (Thermo Fisher Scientific Inc., Waltham, MA, USA).

[14] = biological target: CYP2C9 (Homo sapiens, UniProt P11712); assay: Inhibition of CYP enzymes activity, human liver microsomes; conditions: human liver microsomes 0.25 mg/mL, 10 μM, diclofenac substrate
CYP2C9, sequence (P11712 whole entry): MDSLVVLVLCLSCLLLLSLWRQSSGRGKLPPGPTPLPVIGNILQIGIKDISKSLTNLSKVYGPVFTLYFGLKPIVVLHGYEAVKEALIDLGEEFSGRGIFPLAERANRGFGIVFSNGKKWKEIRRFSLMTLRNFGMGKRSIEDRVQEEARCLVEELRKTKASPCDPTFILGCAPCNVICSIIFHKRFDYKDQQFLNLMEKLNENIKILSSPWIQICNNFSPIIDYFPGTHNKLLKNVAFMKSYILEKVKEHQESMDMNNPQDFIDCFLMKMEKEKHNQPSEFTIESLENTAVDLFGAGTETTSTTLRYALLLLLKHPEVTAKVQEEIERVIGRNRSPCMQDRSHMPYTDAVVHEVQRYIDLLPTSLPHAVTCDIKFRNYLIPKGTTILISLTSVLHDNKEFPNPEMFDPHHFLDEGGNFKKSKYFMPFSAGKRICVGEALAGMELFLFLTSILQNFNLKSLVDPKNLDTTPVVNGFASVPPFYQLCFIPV
Experimental: (§5) By simultaneously analyzing metabolites, the ability of the six compounds to inhibit drug metabolism enzymes was evaluated.
as §4

[15] = biological target: T3, PP2A in HCT116 cells (Homo sapiens, UniProt P67775); assay: PP2A activity assay (immunoprecipitation kit); type: cell-based; conditions: HCT116, 24 h, 20 µM of compounds 10, 11 and 13; vs nontreated control cells
T3 construct: endogenous in cells; host or cells: HCT116
T3 sequence (P67775 whole entry): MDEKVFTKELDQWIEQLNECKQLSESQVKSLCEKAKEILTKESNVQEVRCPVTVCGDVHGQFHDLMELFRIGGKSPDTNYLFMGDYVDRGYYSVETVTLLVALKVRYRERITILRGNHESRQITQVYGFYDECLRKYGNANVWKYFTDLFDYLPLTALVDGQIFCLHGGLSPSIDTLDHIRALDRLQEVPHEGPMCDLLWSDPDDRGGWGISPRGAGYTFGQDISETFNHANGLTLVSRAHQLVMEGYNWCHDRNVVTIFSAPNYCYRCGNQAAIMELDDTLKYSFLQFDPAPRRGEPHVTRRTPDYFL
Experimental: The activity of PP2A was measured by using the PP2A kit according to the manufacturer’s instruction. The cell lysate was incubated with anti PP2A, C subunit antibody, and protein A agarose slurry for 2 h at 4 °C. The phosphopeptide solution (60 µL) was mixed and incubated at 30 °C for 10 min in a shaker. After a brief centrifuge, a 25 µL sample was liquated in ½ volume microplate and 100 µL malachite green phosphate detection working solution was added. After color development, absorbance was taken at 650 nm in a Multiskan GO microplate reader. A phosphate standard curve was constructed using phosphate standard, and results were calculated using this standard curve. This experiment was repeated three times (n = 6).

[16] = In vitro metabolic stability in liver microsomes; type: in vitro ADME, rat
[17] = biological target: CYP2C19 (Homo sapiens, UniProt P33261); assay: Inhibition of CYP enzymes activity, human liver microsomes; conditions: human liver microsomes 0.25 mg/mL, 10 μM, S-mephenytoin substrate
CYP2C19, sequence (P33261 whole entry): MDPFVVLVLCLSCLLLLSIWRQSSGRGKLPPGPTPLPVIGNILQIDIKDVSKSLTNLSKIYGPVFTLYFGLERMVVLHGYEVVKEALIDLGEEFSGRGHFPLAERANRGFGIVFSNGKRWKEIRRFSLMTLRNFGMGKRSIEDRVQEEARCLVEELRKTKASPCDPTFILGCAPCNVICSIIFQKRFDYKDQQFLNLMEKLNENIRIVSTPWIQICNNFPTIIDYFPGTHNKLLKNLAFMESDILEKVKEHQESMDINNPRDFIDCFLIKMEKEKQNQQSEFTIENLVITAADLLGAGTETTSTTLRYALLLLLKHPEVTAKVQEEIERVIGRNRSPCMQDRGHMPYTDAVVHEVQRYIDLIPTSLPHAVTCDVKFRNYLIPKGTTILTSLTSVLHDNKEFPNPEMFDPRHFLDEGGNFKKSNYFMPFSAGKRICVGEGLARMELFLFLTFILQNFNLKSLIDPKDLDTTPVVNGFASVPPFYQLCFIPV
Experimental: as §5, §4

[18] = tested on: SK2; conditions: known compounds, Figure 1; cited from earlier work
[19] = tested on: HT29 cells; assay: Annexin V-FITC/PI staining, flow cytometry; type: cell-based, human; conditions: HT29, 10 and/or 20 µM, 24 h
Experimental: After treating HT29 and HCT116 cells with compounds 10, 11, 13 and FTY720 according to the manufacturer’s instruction, the annexin V and PI staining technique was employed to determine apoptosis in the cells. Briefly, cells (2.5 × 10^5 cells/well) were seeded in 12-well plates and treated with 10 and/or 20 µM of compounds for 24 h. Cells were collected using trypsin-EDTA and stained with annexin V-FITC dye for 15 min at room temperature, followed by PI staining for 20 min and analyzed by flow cytometer (MACSQuant Analyzer 10; Miltenyi Biotec, Bergisch Gladbach, Germany). The data was analyzed using MACSQuantify^TM version 2.8 software (Miltenyi Biotec, Bergisch Gladbach, Germany) and presented as early apoptosis, late apoptosis, or combined apoptosis percentage. Each experiment was repeated three times independently (n = 6).

[20] = biological target: T4, CYP3A4 (Homo sapiens, UniProt P08684); assay: Inhibition of CYP enzymes activity, human liver microsomes; type: in vitro ADME; conditions: human liver microsomes 0.25 mg/mL, 10 μM, midazolam substrate
T4 construct: Human liver microsomes (0.25 mg/mL); from tissue; host or cells: human liver microsomes
T4 sequence (P08684 whole entry): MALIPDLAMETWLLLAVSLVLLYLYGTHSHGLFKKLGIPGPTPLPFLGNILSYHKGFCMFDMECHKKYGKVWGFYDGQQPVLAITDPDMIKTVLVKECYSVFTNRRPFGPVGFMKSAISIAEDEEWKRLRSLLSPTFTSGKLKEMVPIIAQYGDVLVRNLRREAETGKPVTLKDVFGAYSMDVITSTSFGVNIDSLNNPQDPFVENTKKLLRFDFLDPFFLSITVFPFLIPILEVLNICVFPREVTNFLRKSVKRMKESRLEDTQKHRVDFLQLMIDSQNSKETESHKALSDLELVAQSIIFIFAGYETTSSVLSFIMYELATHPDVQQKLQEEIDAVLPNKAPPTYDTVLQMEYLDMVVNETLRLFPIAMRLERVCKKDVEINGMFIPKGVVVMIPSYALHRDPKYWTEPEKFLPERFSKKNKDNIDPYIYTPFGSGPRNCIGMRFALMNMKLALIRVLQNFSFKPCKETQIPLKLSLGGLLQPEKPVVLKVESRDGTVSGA
Experimental: as §5, §4

[21] = biological target: T5, CYP1A2 (Homo sapiens, UniProt P05177); assay: as above; conditions: human liver microsomes 0.25 mg/mL, 10 μM, phenacetin substrate
T5 sequence (P05177 1-516): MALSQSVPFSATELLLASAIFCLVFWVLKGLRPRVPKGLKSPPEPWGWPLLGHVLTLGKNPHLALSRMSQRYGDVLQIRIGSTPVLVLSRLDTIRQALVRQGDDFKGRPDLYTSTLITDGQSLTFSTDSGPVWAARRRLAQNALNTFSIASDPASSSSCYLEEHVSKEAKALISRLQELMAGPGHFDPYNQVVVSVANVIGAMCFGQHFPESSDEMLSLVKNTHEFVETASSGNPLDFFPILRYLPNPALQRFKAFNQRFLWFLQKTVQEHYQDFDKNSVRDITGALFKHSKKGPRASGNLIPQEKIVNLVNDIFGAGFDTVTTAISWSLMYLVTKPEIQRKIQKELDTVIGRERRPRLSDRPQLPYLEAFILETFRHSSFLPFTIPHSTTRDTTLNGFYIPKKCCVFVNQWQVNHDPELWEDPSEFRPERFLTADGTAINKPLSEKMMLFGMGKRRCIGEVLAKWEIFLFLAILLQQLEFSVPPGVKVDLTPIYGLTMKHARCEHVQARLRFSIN
Experimental: as §3, §4

[22] = % remaining after 30 min, NADPH

## CCCCCCCOc1ccc(CCN2CCC(O)CC2)cc1 [Compound 3, 1-(4-(Heptyloxy)phenethyl)piperidin-4-ol]
[1]; HT29, 20 and 40 µM, 24 h, Figure 2A
  cytotoxic effect (cell viability): more cytotoxic than RB005 and 5-FU
[2]; HCT116, 20 and 40 µM, 24 h, Figure 2B
  cytotoxic effect (cell viability): only 40 µM concentration of compounds 3, 5 and 9 shows significant cytotoxic effect
[3]
  SK1/2 inhibitory effect compared to RB005 (SK2): three times higher
[4]
  SK1/2 inhibitory effect compared to RB005 (SK1): three times higher

## CC1=C(CN2CC(C(=O)O)C2)CCc2cc(OCCCCc3ccccc3)ccc21 [Compound W-061]
[5]
  Binding affinity, S1PR3: 1710
[6]
  Binding affinity, S1PR4: 65.4
[7]
  Binding affinity, S1PR5: 10.5
[8]
  Binding affinity, S1PR2: > 43800
[9]
  Binding affinity, S1PR1: 4.11

## CCCCCCCCc1ccc(CCC(N)(CO)CO)cc1 [FTY720]
[10]; [22]
  liver microsomal stability, Mouse (%): 89.9%
[10]; mouse
  liver microsomal stability (in words): stable
[11]
  IC50: 5 to 12.5 µM
[12]
  CYP2D6 activity (% of control activity): 92.0%
[13]; % remaining after 30 min, 0.5 mg/mL microsomes, NADPH
  liver microsomal stability, Human (%): 90.5%
[13]; human
  liver microsomal stability (in words): stable
[14]
  CYP2C9 activity (% of control activity): 96.8%
[15]
  PP2A activity increase: 1.65 fold
[16]; [22]
  liver microsomal stability, Rat (%): 77.0%
[16]; rat
  liver microsomal stability (in words): stable
[17]
  CYP2C19 activity (% of control activity): 86.8%
[1]; Homo sapiens, HT-29, HT29, 48 h treatment, 2.5–40 µM, read-out: relative IC50 (cell viability)
  IC50: 4.18 µM
[2]; Homo sapiens, HCT-116, HCT116, 48 h treatment, 2.5–40 µM, read-out: relative IC50 (cell viability)
  IC50: 4.19 µM
[18]
  IC50: 5 to 12.5 µM
[19]
  apoptosis (annexin V assay): increased apoptosis
[20]
  CYP3A4 activity (% of control activity): >100%
[21]
  CYP1A2 activity (% of control activity): 86.5%
